# Assay results reported in PubChem BioAssay AID179 (DTP/NCI, 2004).
# Active and inactive are the calls of the source.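 How the source made its calls: active means compounds giving half or more protection of infected cells from virus-caused growth loss, again on retest; inactive means the rest.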
# System: CEM cells HIV-1 protection, formazan growth assay
# Assay: NCI AIDS Antiviral Assay
# Conditions: for IC50: measured here: growth of uninfected CEM cells
# Method in brief: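 Category rules: moderately active means at least 50% protection on retest, and confirmed active means 100% protection reproducibly. The underlying data came from a formazan growth assay in HIV-1-infected CEM cells.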
Structure (SMILES),EC50 [µM],IC50 [µM],outcome
Cn1c(COC(=O)NC2CCCCC2)c(COC(=O)NC2CCCCC2)c2ccc3cc(C=O)ccc3c21,> 174,2.19,
c1ccc(OCc2nn3c(-c4ccccc4)nnc3s2)cc1,> 200,> 200,
CN(C)CCSC1=Nc2ccc(Cl)cc2C(c2ccccc2Cl)N(C)C1 (stereo unspecified),> 200,20,
O=C1C=C(NC(=O)c2ccc(Cl)cc2)c2ncccc2C1=O,,,inactive
C=C1CC(CC)(CCN2C(=O)c3ccccc3C2=O)OC1=O (stereo unspecified),> 209,10.5,
O=C1CN(CCN2CCCCC2)CC(=O)N2Cc3ccccc3CN12,> 200,> 200,
CC(=O)OCC1OC(NC(=S)Nn2c(-c3ccccc3)nc3ccccc3c2=O)C(OC(C)=O)C(OC(C)=O)C1OC(C)=O (stereo unspecified),> 200,> 100,
COC(OC)c1c2c(O)c3c(O)c(C)c4c(c3c1O)C(=O)C(C)(O/C=C/C(OC)C(C)C(OC(C)=O)C(C)C(O)C(C)C(O)C(C)/C=C/C=C(/C)C(=O)N2)O4 (stereo unspecified),> 200,25.1,
CN(CC#N)C(=O)Cc1ccc([N+](=O)[O-])cc1,> 200,> 200,
Cc1cc([N+](=O)[O-])ccc1Sc1c2ccccc2nc2cc(Cl)ccc12,> 19.1,> 19.1,
Cc1ccc(-n2c(N)c(C#N)c3[nH]nc(N)c3c2=O)cc1,> 200,> 200,
O=[N+]([O-])c1ccc(/C=C/c2csnn2)cc1,> 562,229,
CCN1CCCc2cc3c(C(F)(F)F)cc(=O)oc3cc21,> 17.4,> 17.4,
Cn1cc(NC(=O)Nc2cc(C(=O)Nc3cc(C(=O)Nc4ccc(S(=O)(=O)O)c5cccc(S(=O)(=O)O)c45)n(C)c3)n(C)c2)cc1C(=O)Nc1cc(C(=O)Nc2ccc(S(=O)(=O)O)c3cccc(S(=O)(=O)O)c23)n(C)c1,,,inactive
O=C1c2ccccc2C(=O)c2c1nnn2-c1ccccc1,> 200,3.55,
CCOC(=O)c1c(-c2ccccc2)nc2c(OC)nccn12,> 200,126,
COc1ccc2nc3cccc([N+](=O)[O-])c3c(NCCO)c2c1,> 2,0.0309,

Structure (SMILES),EC50 [µM],IC50 [µM],outcome
CC1(C)C(=O)N(c2ccccc2)C(=O)N1c1nc2ccccc2[nH]1,> 155,> 155,
CC1(C)CC(=O)c2c(nc(SSc3nc4c(c(-c5ccccc5)c3C#N)C(=O)CC(C)(C)C4)c(C#N)c2-c2ccccc2)C1,> 200,89.1,
O=C(O)/C(=C(/c1ccccc1)c1ccc(Cl)cc1)c1ccccc1,> 107,89.1,
O=C(CC(=O)c1cccc2ccccc12)C(=O)Nc1nccs1,> 30.9,> 30.9,
O=c1[nH]/c(=C/c2ccc3c(c2)OCO3)c(=O)[nH]/c1=C/c1ccc2c(c1)OCO2,,,inactive
Clc1ccc(OCc2nnc(CCCCCCCCc3nnc(COc4ccc(Cl)cc4Cl)n3Nc3ccccc3)n2Nc2ccccc2)c(Cl)c1,> 0.501,> 0.501,
CC(C)(c1ccccc1)C(C)(C)c1nc(-c2ccccc2)cc(-c2ccccc2)n1,> 3.72,> 3.72,
COc1ccccc1/C=C1\CCc2ccccc2C1=O,> 27.5,15.5,
O=CC[C@H]1CCc2ccccc2C12CCC(=O)CC2,> 74.1,> 74.1,
N#CCC[P+](c1ccccc1)(c1ccccc1)c1ccccc1,> 200,55,
COC(=O)C1(COCc2ccccc2)CCCC2OC21 (stereo unspecified),,,inactive
CCC[CH2][Sn]([CH2]CCC)([S]CCS(=O)(=O)O)[S]CCS(=O)(=O)O (tested in a mixture with another compound),> 200,> 200,
Cc1cc(C#N)c(=S)n(C2OC(CO)C(O)C(O)C2O)c1C (stereo unspecified),> 200,> 200,
O=C1c2ccccc2-c2c3c(cc4ccnc1c24)OCO3,,,inactive
CCOC(=O)c1cc2nc3ccccc3c(=O)n2c2ccccc12,> 200,> 200,
CCNc1nnc(CSc2nc(-c3ccccc3)c(-c3ccccc3)[nH]2)s1,> 25.1,12.9,
